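Cells were grown in 96-well plates and exposed to each compound for 48 hours at five concentrations; endpoints were interpolated linearly between bracketing concentrations, or set to the highest concentration if not reached. At the GI50, growth is halved. At the TGI there is no net growth.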 Where only a bound is given, the exact number is not on record here.

What all share (test): NCI-60 cell line screen, 48 h
Test [1] concerns MDA-N.
In test [2] the test system is DMS 114 small cell lung.
Test [3] has as its system KM20L2 colon.
Test [4] concerns LXFL 529 NSCLC.
Test [5] deals with M19-MEL melanoma.
The test system of test [6] is SNB-78 CNS.
The test system of test [7] is XF 498 CNS.
Test [8] relates to DMS 273 small cell lung.
The test system of test [9] is RXF-631 renal.

`CN1c2ccccc2S(=O)(=O)n2c(CCc3ccccc3)nnc21`: in test [1], the TGI was > 100 µM.
Regarding `COC(=O)[C@]1(C)C(OC)=CC(=O)C2C1[C@H]1CCC[C@@H]21` (stereo not given in full), the TGI in test [2], in test [3], in [4], in test [5], in test [6] and in [7] was > 100 µM in each case.
Regarding `COc1ccccc1NC(=O)C1=C(C)NC(C)=C(C(=O)Nc2ccccc2OC)C1c1ccc(N(C)C)cc1`, the TGI is 65.6 µM in test [2]; 96.8 µM in test [3]; > 100 µM in test [4]; > 100 µM in [5]; 81.1 µM in test [6]; 57.1 µM in test [7].
Regarding `COc1cc(/C=C/c2ccc(OC)c(OC)c2OC)cc(OC)c1OC`, the TGI amounted to 60.9 µM in test [2]; 41 µM in test [8]; 55.3 µM in test [3]; 54.9 µM in test [4]; 51 µM in [5]; 51.2 µM in test [9]. The values for the TGI in test [6] and in test [7] were 46.4 µM and 72.3 µM, respectively.
On to `COC(=O)C(CC(=O)c1c[nH]c2ccccc12)c1c[nH]c2ccccc12` (stereo not given), for which the TGI was 39.4 µM in test [2]; 27.6 µM in [8]; 34 µM in [3]; > 10 µM in test [5]; 31.5 µM in [9]; 58.2 µM in [6]. Further, the TGI in test [7] turned out to be 31.8 µM.
On to `CS(=O)(=O)NNS(=O)(=O)c1ccc(Cl)cc1`, for which the TGI in [2], in [8], in test [3], in test [4], in [5] and in test [9] was > 100 µM in each case. In addition, the TGI in test [7] was > 100 µM.
For `CCOC(=O)c1c(-c2ccccc2)c(C(OC(c2ccccc2)c2c(-c3ccccc3)c(C(=O)OCC)n3ccccc23)c2ccccc2)c2ccccn12` (stereo not given), the TGI in test [8], in [3], in test [4], in [6] and in test [7] was > 100 µM throughout.
Regarding `Cc1cc(=O)oc2cc(OC(=O)N(CCCl)CCCl)ccc12`, the TGI in [1] was > 100 µM.
For `ClCc1ccc(C2OCCO2)cc1`, the TGI in test [2] is > 42.9 µM; in test [8] it was 45.3 µM; in test [3], > 69 µM; in test [4], 37.2 µM; in test [5], 37.8 µM; in test [9], > 100 µM. Also, the TGI in test [6] is > 31.6 µM; in test [7] it was 33.3 µM.
Turning to `CC1(C)C=[N+]([O-])C(C)(C)N1O`, the TGI in test [1] is > 10 µM.
In the case of `COC(=O)c1ccc(C(=O)OC)c2nc3cc(C)ccc3nc12`, the TGI in test [2], in [8], in test [3], in test [4], in [9] and in test [6] was > 100 µM throughout. Besides, the TGI in [7] was > 100 µM.
For the compound `Cc1cccc(N=C2NC(=O)C(CC(=O)Nc3ccc(C)cc3C)S2)c1` (stereo not given), the TGI in test [2], in [8], in [3], in [4], in test [5] and in test [6] was > 100 µM each time. For the same compound, in test [7], the TGI was > 100 µM.
Consider `CC(/C=C/NNC1=NC(c2ccccc2)C(c2ccccc2)=NN1)Sc1ccccc1N` (stereo not given), for which the TGI in test [8] worked out at 22.9 µM; in test [3], 23.2 µM; in [4], 15.5 µM; in [5], 28.9 µM; in test [9], 38.7 µM; in test [6], 67.9 µM.
Take `CCCCCCCCCCCCCCCCCCNC(=O)OCC(CNS(=O)(=O)CCC[n+]1cccc2ccccc21)COC` (stereo not given): the TGI in test [3] turned out to be 2.15 µM; in [6], 7.92 µM.
As for `Nc1nc(N)nc(CC(=O)O)n1`, the TGI in [1] was > 100 µM.
In the case of `COc1ccc2ccccc2c1CN1CCOCCOCCN(Cc2c(OC)ccc3ccccc23)CCOCCOCC1`, the TGI in [2] was > 100 µM; in [8] it was 70.5 µM; in test [3], > 100 µM; in test [4], > 100 µM; in test [5] it was > 100 µM; in [6] it was > 100 µM. Also, the TGI in [7] is > 63.2 µM.
As for `Nc1ccc(C(=O)CC2(O)C(=O)Nc3c(Cl)cc(Cl)cc32)cc1` (stereo not given), the TGI in test [3] was > 100 µM; in test [4], > 100 µM; in test [5], > 100 µM; in [9] it was 79.8 µM.
In the case of `[N-]=[N+]=CC(=O)COC(=O)c1ccccc1`, the TGI in test [1] is > 100 µM.
Regarding `CCn1c(=O)c2c3ccc(OC(C)=O)cc3[nH]c2c2ccc(OC(C)=O)cc21`, in test [1], the TGI was > 100 µM.
Same read-out and setting: the same measure for `NNS(=O)(=O)c1cc(C(=O)O)cc(C(=O)O)c1`: > 100 µM.
Take `COC(=O)C(=O)C(C(=O)C(N)=O)c1nc2ccc(C(=O)c3ccccc3)cc2[nH]c1=O` (stereo not given): in [1], the TGI was > 100 µM.
Turning to `Cc1c(C(=O)CC(=O)C(=O)Nc2cc(Cl)ccc2Cl)[n+](=O)c2ccccc2n1[O-]`, the TGI in [2] was 61.3 µM; in [8], 69.4 µM; in test [3], > 100 µM; in test [4] it was > 100 µM; in [5], 59.1 µM; in test [6] it was > 100 µM. In [7], the TGI is > 100 µM.
On to `CC1=NOC(=O)C1N=Nc1ccc(Br)c(C)c1` (stereo not given), for which the TGI was 29.3 µM in test [2]; 45.6 µM in test [8]; > 100 µM in [3]; 29.1 µM in [4]; 35.6 µM in test [5]; 62.8 µM in test [6]. The TGI in test [7] was 31.7 µM.
As for `CC(=O)Nc1ccc(/C=C2/NC(=S)N(/C=C3\C(=O)Oc4ccccc4C3=O)C2=O)cc1`, in test [1], the TGI was > 100 µM.
Consider `O=c1cc(-c2ccccn2)[nH]c2cc(F)ccc12`, for which the GI50 in test [2] was 52.4 µM. Also, the TGI in [2], in [3], in [4], in [5], in test [9] and in test [6] was > 100 µM each time.

Source of the values: PubChem BioAssay (NCI).
